Assay results taken from PMC5855545, “Role of Disulfide Bonds in Activity and Stability of Tigerinin-1R” (International Journal of Molecular Sciences, 2018).
“Also recorded” adds a separate entry of the source. Blank lines part the entries; values can stand above or below the molecule they belong to.

What was measured:
INS-1 cells [1] = test: Protection against palmitic acid-induced apoptosis (MTT viability); type: cell-based, rat; details: 0.5 mM PA, 24 h
Procedure: Solutions of free fatty acids (FFAs) were prepared. Briefly, 100 mM palmitic acid (PA) stocks (Sigma, St. Louis, MO, USA) were prepared in 0.1 M NaOH at 70 °C. Ten percent (w/v) FFA-free BSA (Roche, Mannheim, Germany) solution was prepared in PBS buffer. A 5 mM FFA/10% BSA solution was prepared by mixing 50 μL FFA to 950 μL 10% BSA in a 60 °C water bath. The above solution was then cooled to room temperature, diluted in RPMI 1640 to 0.5 mM and filtered. Cells were added into 96-well plates (5 × 10^3 cells/well). Complete medium was withdrawn after overnight incubation at 37 °C. One hundred microliters of different peptides corresponding to a serial dilution series (concentrations 10^−9, 10^−7, 10^−5 M) diluted with medium containing 0.5 mM PA, was added for another 24 h. Meanwhile, incubation in fresh medium, with or without PA, were set as positive and negative controls, respectively. At the end of incubation, 20 μL of MTT solution (5 mg/mL in PBS) was added to each well and further incubated at 37 °C for 4 h. Cell viability was determined by dissolving the crystallized MTT with dimethyl sulfoxide (150 μL/well).

[2] = Reversed-phase HPLC retention time (relative hydrophobicity); type: physicochemical; details: RP-HPLC at 25 °C; Zorbax 300 SB-C8 150 × 4.6 mm, linear AB gradient 1% acetonitrile/min, 1 mL/min, A 0.1% aqueous TFA pH 2, B 0.1% TFA in acetonitrile
INS-1 cells [3] = test: Insulin-releasing activity in vitro (rat insulin ELISA); type: cell-based; details: 2.8 mM glucose; for insulin release at 10^−5 M compared with tigerinin-1R: 10^−5 M peptide, 1 h in KRB buffer at 37 °C, triplicate
Procedure: INS-1 cells were harvested with trypsin/EDTA, seeded into 6-well plates (3–5 × 10^5 cells/well), and allowed to attach overnight. Prior to the test, cells were preincubated in 1 mL Krebs-Ringer bicarbonate (KRB) buffer without glucose (115 mMNaCl, 4.7 mMKCl, 1.28 mM CaCl2,1.2 mM KH2PO4, 1.2 mM MgSO4, 10 mM NaHCO3, and 1 g/L BSA, pH 7.4) at 37 °C for 45 min. Cells were then incubated in the absence or presence of peptides for 1 h, using the same buffer with 2.8 mM glucose. The insulin supernatants were collected, and subsequently analyzed using ultrasensitive rat insulin ELISA kits (Mercodia, Sweden). The assay was repeated in triplicate.

[4] = Peptide degradation assay in 10% fetal bovine serum; type: in vitro ADME; details: 200 μM peptide in PBS, 37 °C
Procedure: Peptides dissolved in PBS to a final concentration of 200 μM were incubated with 10% fetal bovine serum at 37 °C. At different time points (0, 60, and 120 min), 20 μL peptide samples were taken and diluted with an equal volume of 0.1% aqueous trifluoroacetic acid (TFA). The samples were then analyzed by RP-HPLC. The experiment was performed on a Shimadzu HPLC system with a Zorbax 300 SB-C8 column (150 × 4.6 mm I.D.; 5 µm particle size, 300 Å pore size; Agilent Technologies, Palo Alto, CA, USA) using a linear AB gradient (1% acetonitrile/min) and a flow rate of 1 mL/min, where solvent A was 0.1% aqueous TFA, pH 2, and solvent B was 0.1% TFA in acetonitrile at 25 °C.

bacteria = details: cited from earlier work
From the text: (§1) Tigerinin-1R (Arg–Val–Cys–Ser–Ala–Ile–Pro–Leu–Pro–Ile–Cys–His–NH2) is a cationic peptide containing a disulfide bond that is isolated from the skin secretions of Hoplobatrachus ugulosus. […] In vivo studies have shown that administration of tigerinin-1R or some of its analog ...

high-fat fed mice = details: administration to high-fat fed mice; cited from earlier work
From the text: as §1

INS-1 cells [5] = test: Measurement of intracellular Ca2+ (Fluo-3 AM, confocal microscopy); type: cell-based, rat; details: 10^−5 M peptide, 2.8 mM glucose; less than 30 mM KCl, significantly greater than glucose alone
Procedure: INS-1 cells (2 × 10^5) were cultured in glass bottom dishes (NEST, Wuxi, China). Following overnight culture, the cells were washed with KRB buffer three times, and then incubated with 5 μM fluorescent Ca^2+ probe Fluo-3 AM solution (Solarbio, Beijng, China). After loading for 30 min and washing three times with KRB buffer, cells were incubated for 15 min in the absence of Fluo-3 AM. KRB buffer supplemented with 2.8 mM glucose containing 10^−5 M peptide was then added. Images of cells were obtained by laser scanning confocal microscope (LSM710, Carl Zeiss, Oberkochen, Germany). The fluorescence was excited at 480 nm at 4 s intervals, and detected at 515 nm. Incubations in the presence of 2.8 mM glucose alone (negative control) or extra 30 mM KCl (positive control) were also carried out individually.

Kunming male mice = test: Glucose tolerance in vivo in overnight-fasted mice; set-up: species or system mouse; details: n = 6
Procedure: Kunming male mice were housed individually in an air-conditioned room (22 ± 2 °C) with a 12 h light/12 h dark cycle, and were handled in accordance with the Guide for Care and Use of Laboratory Animals in China and approved by the animal ethics committee of Jilin University (Approval No. JLUSWLL003, Jilin, China; dated on 10 May 2017). Drinking water and standard laboratory chow were freely available. No adverse effects were observed following administration of the peptides. Age-matched groups (n = 6) of overnight-fasted mice received an intraperitoneal injection of either glucose (18 mmol/kg body weight), tigerinin-1R (75 nmol/kg body weight), or [C11K]tigerinin-1R (75 nmol/kg body weight) individually as control groups, and glucose in combination with tigerinin-1R or glucose in combination with [C11K]tigerinin-1R as experimental groups, respectively. All solutions were administered in 0.9% NaCl (5 mL/kg body weight). Blood samples were collected from the cut tip of the tail vein of conscious mice, before injection and at 15, 30, 60, and 120 min immediately after injection, and glucose was measured using a Sannuo stable blood glucose meter (Changsha, China) using corresponding test strips.

Molecule: CCCCCCCCCCCCCCCC(=O)O [PA, palmitic acid]
viability of INS-1 cells with PA (positive control) (INS-1 cells [1]): 58.24%

tR (min), retention time during reversed-phase HPLC (relative hydrophobicity) [2]: 11.590 min
Molecule: Ac-RVASAIPLPIAH-NH2 [tigerinin-linear]
insulin release at 10^−5 M compared with tigerinin-1R (INS-1 cells [3]): lower insulin-releasing activity than tigerinin-1R

stability: RP-HPLC peak area of intact peptide after 60 min ([4]; 60 min): decreased dramatically | stability: RP-HPLC peak area of intact peptide at/within 120 min [4]: almost disappeared
Molecule: Ac-RVCSAIPLPIKH-NH2 [[C11K]tigerinin-1R]

Molecule: CSAIPLPIC-amide (C–C) (disulfide) [tigerinin-cyclic, tigerinin-1R analog retaining only the cyclic moiety]
insulin release at 10^−5 M compared with tigerinin-1R (INS-1 cells [3]): decrease in insulin-releasing ability

Molecule: RVCSAIPLPICH-amide (C–C) (disulfide) [tigerinin-1R, Arg–Val–Cys–Ser–Ala–Ile–Pro–Leu–Pro–Ile–Cys–His–NH2, cationic 12-mer peptide containing a disulfide bond, from frog skin secretions; parent peptide, synthesized here]
tR (min), retention time during reversed-phase HPLC (relative hydrophobicity) [2]: 19.465 min | antibacterial activity (bacteria): lacks antibacterial activity | insulin release and glucose tolerance in high-fat fed mice (high-fat fed mice): significantly enhanced insulin release and improved glucose tolerance | concentration of intracellular Ca2+ (Fluo-3 fluorescence) (INS-1 cells [5]): produced an increase in the concentration of intracellular Ca^2+ | insulin secretion of INS-1 cells at different peptide concentrations (INS-1 cells [3]; 10^−8 to 10^−5 M, 1 h in KRB buffer pH 7.4 at 37 °C, compared to 2.8 mM glucose alone, n = 3): concentration-dependent manner | plasma glucose concentrations after peptide alone (Kunming male mice; 75 nmol/kg peptide i.p. alone, without glucose injection): little change in plasma glucose concentrations | glucose tolerance / hypoglycemic ability (plasma glucose) (Kunming male mice; 75 nmol/kg peptide i.p. with glucose 18 mmol/kg, 15-120 min): improved glucose tolerance; also recorded: higher hypoglycemic ability than [C11K]tigerinin-1R | stability: RP-HPLC peak area of intact peptide at/within 120 min [4]: changed very little
